Data on two compounds can be found in ChEMBL document CHEMBL3098092, “Fluorescent probes of the isoxazole-dihydropyridine scaffold: MDR-1 binding and homology model” (Bioorg Med Chem Lett, 2014).

Data set [1] is described as follows: Drug uptake in human SH-SY5Y cells at 1 uM after 90 mins by confocal fluorescence microscopy analysis. The class given is ADME, cell-based. Conditions: 1.5 h; call rule not given here.
The nature of data set [2]: Drug uptake in human SH-SY5Y cells at 10 uM after 90 mins by confocal fluorescence microscopy analysis. It is filed as ADME, cell-based. Conditions: 1.5 h.
Data set [3] concerns the target MDR-1 (P-glycoprotein, ABCB1) (Homo sapiens, UniProt P08183). Put plainly: Inhibition of MDR-1 (unknown origin) expressed in human Caco2 cells using Calcein-AM at 50 uM preincubated for 30 mins by fluorescence based PDSP assay relative to control. The class given is cell-based. As to conditions: Caco-2 cells expressing MDR-1, probe Calcein-AM.

Chain of MDR-1 (P-glycoprotein, ABCB1) (P08183 whole entry): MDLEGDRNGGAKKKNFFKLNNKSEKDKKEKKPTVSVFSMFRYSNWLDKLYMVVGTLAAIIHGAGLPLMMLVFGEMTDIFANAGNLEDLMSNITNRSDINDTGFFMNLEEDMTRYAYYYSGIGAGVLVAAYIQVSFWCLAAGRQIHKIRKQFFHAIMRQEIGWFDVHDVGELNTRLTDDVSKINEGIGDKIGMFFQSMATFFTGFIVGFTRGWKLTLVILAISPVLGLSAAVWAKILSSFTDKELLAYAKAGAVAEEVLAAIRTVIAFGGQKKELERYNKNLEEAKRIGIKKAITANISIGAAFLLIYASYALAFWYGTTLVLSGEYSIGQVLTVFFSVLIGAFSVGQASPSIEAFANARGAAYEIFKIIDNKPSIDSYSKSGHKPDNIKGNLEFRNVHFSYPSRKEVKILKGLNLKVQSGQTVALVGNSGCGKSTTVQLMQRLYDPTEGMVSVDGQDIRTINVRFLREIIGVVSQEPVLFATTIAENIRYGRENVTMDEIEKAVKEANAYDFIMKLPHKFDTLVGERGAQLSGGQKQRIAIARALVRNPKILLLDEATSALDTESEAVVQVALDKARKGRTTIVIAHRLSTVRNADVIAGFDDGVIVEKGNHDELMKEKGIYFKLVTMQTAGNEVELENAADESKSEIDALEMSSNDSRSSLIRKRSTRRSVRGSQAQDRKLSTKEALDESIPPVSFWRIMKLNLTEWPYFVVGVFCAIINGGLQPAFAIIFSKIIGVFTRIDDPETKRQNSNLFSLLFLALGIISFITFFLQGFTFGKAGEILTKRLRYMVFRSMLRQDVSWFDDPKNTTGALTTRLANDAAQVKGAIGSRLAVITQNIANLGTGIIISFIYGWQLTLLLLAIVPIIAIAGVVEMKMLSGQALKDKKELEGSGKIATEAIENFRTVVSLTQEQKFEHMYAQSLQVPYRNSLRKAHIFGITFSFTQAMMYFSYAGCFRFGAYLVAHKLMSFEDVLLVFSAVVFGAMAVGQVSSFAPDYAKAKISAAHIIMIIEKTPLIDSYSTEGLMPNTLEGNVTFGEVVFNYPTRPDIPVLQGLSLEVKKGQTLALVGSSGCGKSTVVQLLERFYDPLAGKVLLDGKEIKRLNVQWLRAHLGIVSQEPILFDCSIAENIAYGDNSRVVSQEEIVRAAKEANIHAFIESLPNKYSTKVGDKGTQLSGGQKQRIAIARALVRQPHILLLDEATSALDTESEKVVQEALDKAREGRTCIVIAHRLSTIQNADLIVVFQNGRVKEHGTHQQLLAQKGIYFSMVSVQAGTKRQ

For `CCOC(=O)C1=C(C)NC(C)=C(C(=O)NCCCCCCNS(=O)(=O)c2ccc(-c3c4ccc(N(CC)CC)cc4[o+]c4cc(N(CC)CC)ccc34)c(S(=O)(=O)[O-])c2)C1c1c(-c2ccccc2)noc1C` (stereo not drawn), the Drug uptake result in data set [1] is reported as “Active”.
As a reminder, the inhibition is the relative decrease from the control value, in per cent. `CCOC(=O)C1=C(C)NC(C)=C(C(=O)NCCCCCCCCNS(=O)(=O)c2cccc3c(N(C)C)cccc23)C1c1c(-c2ccccc2)noc1C` (stereo not drawn): in data set [2], the Drug uptake entry is given as “Active”. Also, the inhibition at 30 min, 50 µM in data set [3] is 63%.
